From ChEMBL document CHEMBL1201862, “PubChem BioAssay data set” (2004)
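48-hour exposure; five concentrations; linearly interpolated endpoints. Abbreviation: GI50, concentration required for 50% inhibition of growth.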 Active and inactive are the calls of the source. No stated cut-off is given here; in the data, active = GI50 up to about 1.1 µM and inactive = higher.

Key:
Test in all cases: DTP human tumour cell line panel, 48 h
[1] = test system: HCT-116
[2] = test system: HCC 2998
[3] = test system: NCI-H226
[4] = test system: IGROV-1
[5] = test system: 786-0
[6] = test system: TK-10
[7] = test system: CAKI-1
[8] = test system: A549
[9] = test system: OVCAR-4
[10] = test system: U-251
[11] = test system: RXF 393
[12] = test system: RPMI-8226
[13] = test system: HOP-92
[14] = test system: SK-MEL-5
[15] = test system: UO-31
[16] = test system: M14
[17] = test system: SNB-75

Measured: GI50

C/C(=N\[N+](C)(C)C)C(c1ccccc1)C1(c2ccccc2)C(c2ccccc2)=C1c1ccccc1 (centres undefined)
inactive: [1] > 100 µM | [2] > 100 µM | [3] 19.4 µM | [4] > 100 µM | [5] > 100 µM | [6] 90.2 µM | [7] > 100 µM | [8] > 100 µM | [9] > 100 µM | [10] 66.1 µM | [11] 22 µM | [12] > 100 µM | [13] 50.9 µM | [14] > 100 µM | [15] 53.1 µM | [16] > 100 µM

CC1=NN(C(=O)c2ccc(Cl)cc2)C(=O)/C1=C/c1cccc(O)c1
inactive: [1] > 100 µM | [2] > 100 µM | [3] > 100 µM | [4] > 100 µM | [5] > 100 µM | [6] > 100 µM | [7] > 100 µM | [8] > 100 µM | [9] > 100 µM | [10] > 100 µM | [11] > 100 µM | [12] > 100 µM | [13] > 100 µM | [14] > 100 µM | [15] > 100 µM | [16] > 100 µM

COc1cc(CC2C(=O)OCC2[C@@H](OC(C)=O)c2ccc3c(c2)OCO3)c(Br)c(OC)c1OC (some centres undefined)
inactive: [1] 76.7 µM | [2] 98.4 µM | [4] 80.2 µM | [5] > 100 µM | [6] > 100 µM | [7] > 100 µM | [17] 28.5 µM | [8] 39.4 µM | [9] 90.6 µM | [11] 51.3 µM | [13] 12 µM | [14] 30.9 µM | [15] 53.3 µM | [16] 50.9 µM

NNC(=O)C(=O)N/N=C1\CCCC1C(=O)CCC(=O)Nc1cccc(Cl)c1 (centres undefined)
inactive: [1] > 100 µM | [2] > 100 µM | [3] > 100 µM | [4] > 100 µM | [5] > 100 µM | [6] > 100 µM | [17] > 100 µM | [8] > 100 µM | [9] > 100 µM | [10] > 100 µM | [11] > 100 µM | [12] > 100 µM | [13] > 100 µM | [14] > 100 µM | [15] > 100 µM | [16] > 100 µM

CS(=O)(=O)ON1C(=O)c2ccc(N)cc2C1=O
inactive: [1] > 79.8 µM | [2] > 100 µM | [3] > 100 µM | [4] > 100 µM | [5] > 100 µM | [6] > 100 µM | [17] > 100 µM | [8] > 100 µM | [9] > 100 µM | [10] > 100 µM | [11] > 40.9 µM | [12] 23.8 µM | [13] > 100 µM | [14] > 100 µM | [15] > 100 µM | [16] > 87.3 µM

COc1cc2nncc(Sc3cnnc4ccccc34)c2cc1OC
inactive: [2] 17.6 µM | [3] 23.7 µM | [4] 21.9 µM | [5] 27.4 µM | [6] 29 µM | [7] 11.8 µM | [8] 25.5 µM | [9] 10.1 µM | [10] 25.5 µM | [12] 16.9 µM | [13] 6.14 µM | [14] 14.2 µM | [15] 19.1 µM | [16] 18 µM

O=C(O)/C=C\C(=O)Nc1ccc(S(=O)(=O)c2ccc(NC(=O)/C=C\C(=O)O)cc2)cc1
inactive: [1] > 100 µM | [3] > 100 µM | [4] > 100 µM | [5] > 100 µM | [6] > 100 µM | [7] > 100 µM | [17] > 100 µM | [8] > 100 µM | [9] > 100 µM | [10] > 100 µM | [12] > 100 µM | [13] > 100 µM | [14] > 100 µM | [15] > 100 µM | [16] > 100 µM

Cc1ccc(S(=O)(=O)C(C#N)c2nc3ccccc3nc2N2CCOCC2)cc1 (centres undefined)
inactive: [1] 18.2 µM | [2] 14.1 µM | [3] > 100 µM | [4] 13.6 µM | [5] 30.2 µM | [6] 56.6 µM | [7] 25.6 µM | [17] 22.8 µM | [8] 76 µM | [9] 20.5 µM | [10] 18.7 µM | [12] 22 µM | [14] 48.8 µM | [15] 32.1 µM | [16] 44.2 µM

O=[N+]([O-])c1ccc(-c2noc(-c3ccccc3)c2C2=NCCN2)cc1
inactive: [1] 30.1 µM | [2] > 100 µM | [3] 75.2 µM | [4] > 100 µM | [5] 54 µM | [7] 40.3 µM | [17] 68.5 µM | [8] > 100 µM | [9] 77.6 µM | [10] 84.5 µM | [11] 38.6 µM | [12] > 100 µM | [14] 12.9 µM | [15] 24.9 µM | [16] 87.9 µM

Cn1cc(NC(=O)c2cc(NC(=O)CCCCCCC(=O)Nc3cc(C(=O)Nc4cc(C(=O)NCCC(=N)N)n(C)c4)n(C)c3)cn2C)cc1C(=O)NCCC(=N)N
inactive: [1] 8.53 µM | [2] 10.7 µM | [4] 3.8 µM | [5] 12.9 µM | [6] 11.6 µM | [7] 11 µM | [17] 10.1 µM | [8] 7.29 µM | [9] 36.1 µM | [10] 17.3 µM | [11] 17 µM | [13] > 100 µM | [14] 1.92 µM | [15] 39.4 µM | [16] 16 µM

CCN(CC)CC1c2ccccc2C(CNc2ccccc2)N1C (centres undefined)
inactive: [2] > 100 µM | [4] > 100 µM | [5] > 100 µM | [6] > 100 µM | [7] 92 µM | [17] 49.3 µM | [8] > 100 µM | [9] > 100 µM | [11] > 100 µM | [12] 80.7 µM | [13] 30.1 µM | [14] > 100 µM | [15] > 100 µM | [16] > 100 µM

COc1ccc(-c2cc(C(=O)Nc3ccc(C)c(C)c3)nc(NC#N)n2)cc1
inactive: [1] > 100 µM | [4] > 100 µM | [5] > 100 µM | [6] > 100 µM | [7] > 100 µM | [17] > 100 µM | [8] > 100 µM | [9] > 100 µM | [10] > 100 µM | [11] > 100 µM | [12] > 100 µM | [14] > 100 µM | [15] > 100 µM | [16] > 100 µM

N#CC(NNC(=O)c1ccccc1O)c1cccc(O)c1 (centres undefined)
inactive: [1] 3.26 µM | [3] 11.5 µM | [4] 3.4 µM | [5] 6.53 µM | [6] > 100 µM | [7] 5.43 µM | [17] 1.7 µM | [8] 2.21 µM | [9] 3.36 µM | [10] 2.99 µM | [11] 1.78 µM | [12] > 100 µM | [13] 4.25 µM | [14] 18.2 µM | [15] 1.55 µM | [16] 6.35 µM

CN(CCO)c1nc(=O)c2c(n1C1OC(CO)C(O)C(O)C1O)CCCC2 (centres undefined)
inactive: [1] > 100 µM | [2] > 100 µM | [3] > 100 µM | [4] > 100 µM | [5] > 100 µM | [6] > 100 µM | [7] > 100 µM | [17] 62.5 µM | [8] > 100 µM | [10] > 100 µM | [11] > 100 µM | [12] > 100 µM | [13] > 100 µM | [14] > 100 µM | [15] > 100 µM | [16] > 100 µM

N#Cc1cccc(-n2[nH]c(=O)ccc2=O)c1
inactive: [1] > 100 µM | [2] > 100 µM | [3] > 100 µM | [4] > 100 µM | [5] > 100 µM | [6] > 100 µM | [7] > 100 µM | [17] 59.7 µM | [8] > 100 µM | [9] > 100 µM | [10] > 100 µM | [12] > 100 µM | [13] > 100 µM | [14] > 100 µM | [15] > 100 µM | [16] > 100 µM

c1cc(-c2cn3ccsc3n2)ccn1
inactive: [1] > 75.5 µM | [2] > 100 µM | [3] > 100 µM | [4] > 100 µM | [5] 38.4 µM | [6] > 100 µM | [7] > 91 µM | [17] > 86.9 µM | [8] > 100 µM | [9] > 65.8 µM | [10] > 100 µM | [12] > 54.5 µM | [13] > 100 µM | [14] > 100 µM | [15] > 100 µM | [16] > 100 µM

O=C1C=CC2(C=C1)CCNC1=C2C(=O)c2ccccc2C1=O
inactive: [1] > 100 µM | [2] > 100 µM | [3] > 100 µM | [4] > 100 µM | [5] > 100 µM | [6] > 100 µM | [17] 30.8 µM | [8] > 100 µM | [9] > 100 µM | [10] > 100 µM | [11] > 100 µM | [12] > 100 µM | [13] > 100 µM | [14] 56.9 µM | [15] > 100 µM | [16] > 100 µM

O=Cc1c[nH]c2c(=O)[nH]cnc12
inactive: [1] > 100 µM | [2] > 100 µM | [4] > 100 µM | [5] > 100 µM | [6] > 100 µM | [7] > 100 µM | [17] > 100 µM | [8] > 100 µM | [11] > 100 µM | [12] > 100 µM | [13] > 100 µM | [14] > 100 µM | [15] > 100 µM | [16] > 100 µM
